We go through two molecules from patent publication US12702715B2, “Targeted RNA degradation allows precision repurposing of protein-targeted small molecule medicines to RNA” (University of Florida Research Foundation, Incorporated, priority 2020, dated 2026).

“Also recorded” adds a separate entry of the source.

Data set [1] concerns the target T1, RNase L / pre-miR-21 ternary complex (Homo sapiens, UniProt Q05823).
T1 construct: endogenous in cells; host or cells: MDA-MB-231
T1 sequence (Q05823 1-741): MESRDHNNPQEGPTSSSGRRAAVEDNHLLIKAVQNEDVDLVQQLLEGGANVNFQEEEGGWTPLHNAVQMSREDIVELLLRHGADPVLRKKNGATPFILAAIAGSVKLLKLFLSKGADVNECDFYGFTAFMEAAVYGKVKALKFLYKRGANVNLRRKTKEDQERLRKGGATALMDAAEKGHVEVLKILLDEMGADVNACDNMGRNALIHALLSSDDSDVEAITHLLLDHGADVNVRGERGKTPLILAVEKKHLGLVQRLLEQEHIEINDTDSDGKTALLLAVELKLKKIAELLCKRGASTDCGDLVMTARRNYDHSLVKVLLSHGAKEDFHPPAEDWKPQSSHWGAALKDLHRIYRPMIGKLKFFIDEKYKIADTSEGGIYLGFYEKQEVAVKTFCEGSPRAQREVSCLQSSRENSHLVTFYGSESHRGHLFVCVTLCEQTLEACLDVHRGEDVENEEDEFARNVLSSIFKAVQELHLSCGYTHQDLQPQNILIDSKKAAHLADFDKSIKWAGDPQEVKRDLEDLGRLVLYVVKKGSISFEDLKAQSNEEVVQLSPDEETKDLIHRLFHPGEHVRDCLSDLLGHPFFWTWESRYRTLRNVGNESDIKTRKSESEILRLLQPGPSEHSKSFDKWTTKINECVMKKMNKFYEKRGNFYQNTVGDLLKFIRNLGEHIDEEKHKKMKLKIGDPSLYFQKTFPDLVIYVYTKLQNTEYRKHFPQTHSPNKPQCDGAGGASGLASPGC
The experiment in a line: RNase L immunoprecipitation. The class given is cell-based. As to conditions: 1 μM. How it is done: RNase L Immunoprecipitation. MDA-MB-231 cells were seed in 6-well plates and were treated with vehicle, 4 (1 μM) or 5 (1 μM) when the cells reached ~70% confluency. After 48 h, the cells were harvested and lysed in 100 μL of M-PER buffer containing protease inhibitor and RNaseOUT recombinant Ribonuclease Inhibitor (Invitrogen) on ice for 20 min. The lysate was centrifuged at 13,000×g for 15 min, and the supernatants were incubated with Dynabeads Protein A (Life Technologies) bound to RNase L mouse primary antibody or β-actin mouse primary antibody overnight at 4° C. After incubation, the beads were washed with 1×DPBS containing 0.02% (v/v) Tween-20, and RNA was extracted by using a miRNeasy Mini Kit (Qiagen) per the manufacturer's instructions. RT-qPCR was performed as described above. Relative RNA levels were determined by ΔΔCt method by normalizing to 18S rRNA levels. Normalized fold change was calculated as previously described^6.

The next data set has as its system Alport mice (Col4a3−/−). Description: Alport mice studies. It counts as in vivo, mouse. How it is done: (§1) Alport Mice Studies. Alport mice (Col4a3^−/−) and wild type (WT) mice (Col4a3^+/+) were obtained from the breeding of heterozygous […]. Urine was collected 1 day before the treatment, considered as Day 1. The treatment started at Day 2, at around 4 weeks of age. Alport mice were treated with vehicle or 2 as described for NOD/SCID mice in the “In Vivo Studies to Assess Metastasis of Breast Cancer to the Lung” section. Urine was collected every other day for analysis of albumin or creatine levels. After 6 weeks of treatment, the mice were euthanized on Day 43. One kidney was frozen in −80° C. for Western blot and RT-qPCR analyses. The other kidney was fixed in formalin for paraffin-embedding sectioning and further staining.
(§2) Evaluation of Kidney Function. The concentration of urine albumin was determined by using a Mouse Albumin ELISA Kit (Bethyl Laboratories Inc, E99-134) per the manufacturer's protocol. Urine creatinine level was measured by using a Urinary Creatinine Assay Kit (Fisher Scientific, 50-673-569) per the manufacturer's protocol.
(§3) Kidney Tissue Histology. Silver staining, PAS staining, and PPARα staining were performed by Histology Core at Scripps Research Florida. The anti-PPARα (Abcam, ab215270) was used at 1:1000 dilution. FISH imaging of miR-21 and pre-miR-21 were completed as described in “Lung Tissue Histology”.

Data set [2] relates to wild type (WT) mice (Col4a3+/+). The experiment in a line: Wild type mice, control for Alport studies. The class given is in vivo, mouse. How it is done:
as §1, §2, §3

A further data set concerns pre-miR-21 mutant. The experiment in a line: In vitro Chem-CLIP, pre-miR-21 mutant. It counts as binding. As to conditions: 1, 5, 20 or 100 μM. How it is done:
In Vitro Chemical Cross-linking and Isolation by Pull Down (Chem-CLIP) and Competitive Chem-CLIP (C-Chem-CLIP). Growth medium [RMPI 1640 medium with L-glutamine & 25 mM HEPES (Corning)] was inactivated by heating at 95° C. to for 15 min and slowly cooling to room temperature at benchtop. Pre-miR-21 labeled with ^32P at the 5′-end (~10,000 counts) was folded in growth medium by heating at 95° C. for 1 min and slowly cooling to room temperature. To the samples was added Chem-CLIP probe 4 (1, 5, 20 or 100 μM) or negative control probe 5 (1, 5, 20 or 100 μM), and the mixtures were incubated at 37° C. for 1 h. The samples were then cross-linked by irradiation with 365 nm light for 10 min. The Chem-CLIP probe 4 or control probe 5, whether or not cross-linked to the RNA, was then clicked to disulfide biotin azide (10 mM in DMSO; 10 μL per sample; 1168-10, Click Chemistry Tools) by incubating in a solution containing 1×HEPES buffer (25 mM, pH 7), sodium ascorbate (10 μL/sample, 250 mM in H2O), CuSO4 (10 μL/sample, 50 mM in H2O), THPTA (10 μL/sample, 50 mM in H2O) for 2 h at 37° C. […] The radioactive signal from bound RNAs (on the beads) and unbound RNAs (from the wash steps) were measured by using a Beckman Coulter LS6500 Liquid Scintillation Counter. Enrichment of pre-miR-21 was calculated as previously described^6. […]

With `CCOC(=O)C1=C(Nc2ccccc2)S/C(=C\c2ccc(OCCOCCOCCOCCNC(=O)NCCN3CCN(c4ccc5[nH]c(-c6c(N)c7c(F)cccc7[nH]c6=O)nc5c4)CC3)c(O)c2)C1=O` [Compound 2, Ribotac-Dovitinib], the “enrichment of pre-miR-21 in RNase L immunoprecipitation” value in data set [1] (MDA-MB-231) was “immunoprecipitated pre-miR-21; also recorded: enriched”. Besides, the “enrichment of pre-miR-210 in RNase L immunoprecipitation” value in data set [1] (pre-miRNA without 1-binding site) is given as “did not enrich”. The “body weight of Alport mice” value with Alport mice (Col4a3−/−) (56 mg/kg q.o.d.) is “gained more weight than vehicle-treated mice”. For the same molecule, the “urine albumin normalized to urine creatinine” value in the data set with Alport mice (Col4a3−/−) (56 mg/kg, q.o.d., 42 days) is listed as “stabilized; also recorded: decreased urine albumin concentration”; in data set [2] (WT mice, 56 mg/kg q.o.d.) it was “no effect”. Besides, the “PPARα expression in kidneys” value in the data set on Alport mice (Col4a3−/−) (Alport mice) is on record as “enhanced; also recorded: derepressed”; in data set [2] (WT mice), “no significant effect”. Further, the “tubule injury / tubulointerstitial pathology” value in the data set on Alport mice (Col4a3−/−) (PAS staining) is “significantly reduced; also recorded: prevented tubule injury”. The “pre-miR-21 levels in kidneys” value in the data set with Alport mice (Col4a3−/−) (both Alport and WT mice) was “reduced; also recorded: decreased”. Also, the “mature miR-21 levels in kidneys” value in the data set with Alport mice (Col4a3−/−) (both WT and Alport mice, RT-qPCR) was “decreased miR-21 levels; also recorded: reduced”. For the same molecule, in the data set on Alport mice (Col4a3−/−) (silver methenamine staining), the glomerulosclerosis entry was “prevents glomerulosclerosis and tubular atrophy; also recorded: significantly reduced”. In addition, in data set [2] (56 mg/kg q.o.d., 6 weeks), the “body weight of WT mice” value is recorded as “gained weight at a similar rate as vehicle-treated mice”.

Take `C#CCCC1(CCC(=O)NCCN2CCN(c3ccc4[nH]c(-c5c(N)c6c(F)cccc6[nH]c5=O)nc4c3)CC2)N=N1` [Compound 4]: in the data set on pre-miR-21 mutant, the “enrichment of 32P-labeled pre-miR-21 mutant” value was “not mutant”.
